# PMC5053523, “In Vitro Antibacterial Activity of Rhodanine Derivatives against Pathogenic Clinical Isolates” (PLoS ONE, 2016)
# Like-named read-outs stand apart in the source and are kept apart here.
# How the values were obtained:
# Escherichia coli Δ acrAB = experiment: MIC against E. coli 1411 and AcrAB efflux pump deficient E. coli SM1411Δ acrAB; type: cell-based
# Procedure: The MIC of the rhodanines and control antibiotics, in the presence of a sub-inhibitory concentration of colistin or polymixin B nonapeptide (PMBN), against Gram-negative bacteria was evaluated as described before. The antibacterial activity of the rhodanines was further investigated against E. coli SM1411Δ acrAB, a strain that is deficient in the multidrug-resistant AcrAB efflux pump, as described before.
# Escherichia coli O157:H7 [1] = experiment: MIC with/without PMBN, Escherichia coli O157:H7; type: cell-based
# How it was run: (§1)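 Sub-MIC colistin or PMBN added to broth MIC tests of rhodanines and reference antibiotics against Gram-negative strains; AcrAB efflux-deficient E. coli SM1411ΔacrAB also tested.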
# [2] = test system: vancomycin resistant enterococci (VRE); experiment: Broth microdilution MIC50/MIC90, VRE panel; type: cell-based; details: Enterococcus, 10 VRE strains; for MIC90: VRE, read-out: MIC 90; for MIC50: read-out: MIC 50
# Bacillus Strains = experiment: Broth microdilution MIC50/MIC90 and MIC range, Bacillus strains panel; type: cell-based, Bacillus spp.; details: 10 Bacillus strains
# From the text: The broth microdilution technique was used, followed by subculturing on agar plates that were rhodanine—free. […] The MICs reported represent the lowest concentration of each compound necessary to inhibit bacterial growth and the MBCs represent the lowest concentration required to reduce the initial bacterial inoculum by ≥ 99.9%.
# B. cereus = experiment: Broth microdilution MIC/MBC, B. cereus; type: cell-based; details: Bacillus cereus; for MBC: read-out: MBC; for MIC: read-out: MIC
# From the text: The broth microdilution technique was used, followed by subculturing on agar plates that were rhodanine—free.
# Klebsiella pneumoniae = experiment: MIC with/without PMBN, Klebsiella pneumoniae; type: cell-based
# How it was run: as §1
# Salmonella Typhimurium = experiment: MIC with/without sub-MIC colistin, Salmonella Typhimurium; type: cell-based
# How it was run: as §1
# Acinetobacter baumannii [3] = experiment: MIC with/without sub-MIC colistin, Acinetobacter baumannii; type: cell-based
# How it was run: as §1
# Escherichia coli O157:H7 [4] = experiment: MIC with/without sub-MIC colistin, Escherichia coli O157:H7; type: cell-based
# How it was run: as §1
# Mycobacterium smegmatis = experiment: Broth microdilution MIC/MBC, Mycobacterium smegmatis; type: cell-based; details: Mycolicibacterium smegmatis, ATCC14468, M. Smegmatis ATCC 14468; for MBC: read-out: MBC; for MIC: read-out: MIC
# Bacillus anthracis = experiment: microbe, parasite or virus in culture; type: cell-based
# Candida albicans = experiment: MIC against Candida albicans; type: cell-based; details: table prints none, read-out: MIC
# Acinetobacter baumannii [5] = experiment: Broth microdilution MIC, Acinetobacter baumannii; type: cell-based
# MRSA USA300 = experiment: MIC against MRSA USA300 with and without 4% human serum albumin; type: cell-based, Staphylococcus aureus; details: Staphylococcus aureus, read-out: MIC against MRSA USA300
# How it was run: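 MIC measured in tryptic soy broth spiked with 4% HSA and without it, using CLSI broth microdilution on MRSA USA300. Value reported is the lowest concentration preventing bacterial growth.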
# [6] = E.coli 1411 SM (Δ acrAB, AcrAB efflux pump deficient)
# [7] = Escherichia coli O157:H7 ATCC 35150, PMBN (+) 4 μg/mL, read-out: MIC
# [8] = Escherichia coli O157:H7 ATCC 700728, PMBN (+) 4 μg/mL, read-out: MIC
# [9] = NRS201, B. cereus NRS 201 NR-2488
# [10] = Klebsiella pneumoniae ATCC BAA 1706, PMBN (+) 4 μg/mL
# [11] = Klebsiella pneumoniae ATCC BAA 2146, PMBN (+) 4 μg/mL
# [12] = Salmonella Typhimurium ATCC 700720, colistin (+) […], read-out: MIC
# [13] = Salmonella enterica, ATCC 700720 / TYPHIMURIUM
# [14] = Acinetobacter baumannii ATCC BAA747, colistin (+) […], read-out: MIC
# [15] = Acinetobacter baumannii ATCC BAA19606, colistin (+) […], read-out: MIC
# [16] = Acinetobacter baumannii, ATCCBAA747
# [17] = Acinetobacter baumannii, ATCCBAA19606
# [18] = Escherichia coli O157:H7 ATCC 35150, colistin (+) […], read-out: MIC
# [19] = Escherichia coli O157:H7 ATCC 700728, colistin (+) […], read-out: MIC
compound,measurement,setting,value
"CC(=O)NC[C@H]1CN(c2ccc(N3CCOCC3)c(F)c2)C(=O)O1 [Linezolid, linezolid, reference compound]",MIC,Escherichia coli Δ acrAB; E.coli 1411,> 64 µM
same,MIC,Escherichia coli Δ acrAB; [6],16 µM
same,MIC,Escherichia coli O157:H7 [1]; [7],>256 µM
same,MIC,Escherichia coli O157:H7 [1]; [8],128 µM
same,MIC,"Escherichia coli O157:H7 [1]; Escherichia coli, ATCC35150",> 256 µM
same,MIC,"Escherichia coli O157:H7 [1]; Escherichia coli, ATCC700728",> 128 µM
same,MIC90,[2],2 µM
same,MIC50,[2],2 µM
same,MIC50,Bacillus Strains,1 µM
same,MIC90,Bacillus Strains,2 µM
same,MBC,B. cereus; B. cereus BAG1O-2 NR-28582,2 µM
same,MIC,B. cereus; B. cereus BAG1O-2 NR-28582,2 µM
same,MBC,B. cereus; B. cereus BAG1X1-1 NR-28575,1 µM
same,MIC,B. cereus; B. cereus BAG1X1-1 NR-28575,< 0.5 µM
same,MBC,B. cereus; B. cereus BAG1X2-1 NR-28578,2 µM
same,MIC,B. cereus; B. cereus BAG1X2-1 NR-28578,1 µM
same,MBC,B. cereus; B. cereus G9241 NR-9564,1 µM
same,MIC,B. cereus; B. cereus G9241 NR-9564,1 µM
same,MBC,B. cereus; B. cereus VD014 NR-22141,4 µM
same,MIC,B. cereus; B. cereus VD014 NR-22141,2 µM
same,MBC,B. cereus; B. cereus VD115 NR-22148,1 µM
same,MIC,B. cereus; B. cereus VD115 NR-22148,< 0.5 µM
same,MBC,B. cereus; B. cereus VD148 NR-22150,2 µM
same,MIC,B. cereus; B. cereus VD148 NR-22150,2 µM
same,MBC,B. cereus; [9],4 µM
same,MIC,B. cereus; [9],2 µM
same,MIC,Klebsiella pneumoniae; [10],>64 µM
same,MIC,Klebsiella pneumoniae; [11],>64 µM
same,MIC,"Klebsiella pneumoniae; Klebsiella pneumoniae, BAA1706",> 128 µM
same,MIC,"Klebsiella pneumoniae; Klebsiella pneumoniae, BAA2146",> 128 µM
same,MIC,Salmonella Typhimurium; [12],>64 µM
same,MIC,Salmonella Typhimurium; [13],> 128 µM
same,MIC,Acinetobacter baumannii [3]; [14],>64 µM
same,MIC,Acinetobacter baumannii [3]; [15],>64 µM
same,MIC,Acinetobacter baumannii [3]; [16],> 128 µM
same,MIC,Acinetobacter baumannii [3]; [17],> 128 µM
same,MIC,Escherichia coli O157:H7 [4]; [18],≤0.5 µM
same,MIC,Escherichia coli O157:H7 [4]; [19],4 µM
same,MIC,"Escherichia coli O157:H7 [4]; Escherichia coli, ATCC35150",> 128 µM
same,MIC,"Escherichia coli O157:H7 [4]; Escherichia coli, ATCC700728",> 128 µM
same,MBC,Mycobacterium smegmatis,8 µM
same,MIC,Mycobacterium smegmatis,4 µM
O=C(O)[C@H](Cc1ccccc1)N1C(=O)/C(=C/c2cccc(Oc3ccc(Cl)c(Cl)c3)c2)SC1=S [Rh 1],MIC,Escherichia coli Δ acrAB; E.coli 1411,> 64 µM
same,MIC,Escherichia coli Δ acrAB; [6],> 64 µM
same,MIC,Escherichia coli O157:H7 [1]; [7],8 µM
same,MIC,Escherichia coli O157:H7 [1]; [8],>64 µM
same,MIC,"Escherichia coli O157:H7 [1]; Escherichia coli, ATCC35150",> 256 µM
same,MIC,"Escherichia coli O157:H7 [1]; Escherichia coli, ATCC700728",> 128 µM
same,MIC90,[2],8 µM
same,MIC50,[2],8 µM
same,MIC50,Bacillus Strains,4 µM
same,MIC90,Bacillus Strains,4 µM
same,MBC,Bacillus anthracis; Bacillus anthracis AMES35,2 µM
same,MIC,Bacillus anthracis; Bacillus anthracis AMES35,2 µM
same,MBC,Bacillus anthracis; Bacillus anthracis UM23,2 µM
same,MIC,Bacillus anthracis; Bacillus anthracis UM23,2 µM
same,MBC,Bacillus anthracis; Bacillus anthracis Weybridge,2 µM
same,MIC,Bacillus anthracis; Bacillus anthracis Weybridge,2 µM
same,MBC,B. cereus; B. cereus BAG1O-2 NR-28582,4 µM
same,MIC,B. cereus; B. cereus BAG1O-2 NR-28582,4 µM
same,MBC,B. cereus; B. cereus BAG1X1-1 NR-28575,2 µM
same,MIC,B. cereus; B. cereus BAG1X1-1 NR-28575,2 µM
same,MBC,B. cereus; B. cereus BAG1X2-1 NR-28578,4 µM
same,MIC,B. cereus; B. cereus BAG1X2-1 NR-28578,4 µM
same,MBC,B. cereus; B. cereus G9241 NR-9564,4 µM
same,MIC,B. cereus; B. cereus G9241 NR-9564,4 µM
same,MBC,B. cereus; B. cereus VD014 NR-22141,4 µM
same,MIC,B. cereus; B. cereus VD014 NR-22141,4 µM
same,MBC,B. cereus; B. cereus VD115 NR-22148,4 µM
same,MIC,B. cereus; B. cereus VD115 NR-22148,4 µM
same,MBC,B. cereus; B. cereus VD148 NR-22150,4 µM
same,MIC,B. cereus; B. cereus VD148 NR-22150,4 µM
same,MBC,B. cereus; [9],4 µM
same,MIC,B. cereus; [9],4 µM
same,MIC,Klebsiella pneumoniae; [10],>64 µM
same,MIC,Klebsiella pneumoniae; [11],>64 µM
same,MIC,"Klebsiella pneumoniae; Klebsiella pneumoniae, BAA1706",> 128 µM
same,MIC,"Klebsiella pneumoniae; Klebsiella pneumoniae, BAA2146",> 128 µM
same,MIC,"Candida albicans; ATCC10231, C. albicans ATCC 10231, unit from abstract",> 64 µM
same,MIC,"Candida albicans; C. albicans NR 29434, unit from abstract",> 64 µM
same,MIC,"Candida albicans; C. albicans NR 29435, unit from abstract",> 64 µM
same,MIC,"Candida albicans; C. albicans NR29437, unit from abstract",> 64 µM
same,MIC,"Candida albicans; C. albicans NR29438, unit from abstract",> 64 µM
same,MIC,"Candida albicans; C. albicans NR 29446, unit from abstract",> 64 µM
same,MIC,"Candida albicans; C. albicans NR 29448, unit from abstract",> 64 µM
same,MIC,"Candida albicans; C. albicans NR 29449, unit from abstract",> 64 µM
same,MIC,"Candida albicans; C. albicans NR 29453, unit from abstract",> 64 µM
same,MIC,"Candida albicans; C. albicans NR 294436, unit from abstract",> 64 µM
same,MIC,Salmonella Typhimurium; [12],>64 µM
same,MIC,Salmonella Typhimurium; [13],> 128 µM
same,MIC,Acinetobacter baumannii [3]; [14],>64 µM
same,MIC,Acinetobacter baumannii [3]; [15],>64 µM
same,MIC,Acinetobacter baumannii [3]; [16],> 128 µM
same,MIC,Acinetobacter baumannii [3]; [17],> 128 µM
same,MIC,Acinetobacter baumannii [5]; ATCC13345,> 128 µM
same,MIC,Acinetobacter baumannii [5]; ATCC17786,> 128 µM
same,MIC,"MRSA USA300; 24 h, Media TSB + 4% HSA",> 64 µM
same,MIC,MRSA USA300; Media TSB,8 µM
same,MIC,Escherichia coli O157:H7 [4]; [18],>64 µM
same,MIC,Escherichia coli O157:H7 [4]; [19],>64 µM
same,MIC,"Escherichia coli O157:H7 [4]; Escherichia coli, ATCC35150",> 128 µM
same,MIC,"Escherichia coli O157:H7 [4]; Escherichia coli, ATCC700728",> 128 µM
same,MBC,Mycobacterium smegmatis,8 µM
same,MIC,Mycobacterium smegmatis,4 µM
